Test results from US20100227853A1, “INHIBITORS OF CYCLIC AMP PHOSPHODIESTERASES” (Trustees of Boston College, priority 2008, published 2010).

What was measured:
[1] = target: PDE7A (Homo sapiens, UniProt Q13946); assay: 5FOA growth assay in fission yeast strain expressing PDE7A; assay type: cell-based; parameters: targets used in the assays are full-length proteins (as opposed to simply the catalytic domain); expressed in transfected cells; host or cells: Schizosaccharomyces pombe, PDE gene integrated in place of cgs2; conditions: high throughput 5FOA growth screen
Sequence of PDE7A (Q13946 whole entry, the tested form may be a part): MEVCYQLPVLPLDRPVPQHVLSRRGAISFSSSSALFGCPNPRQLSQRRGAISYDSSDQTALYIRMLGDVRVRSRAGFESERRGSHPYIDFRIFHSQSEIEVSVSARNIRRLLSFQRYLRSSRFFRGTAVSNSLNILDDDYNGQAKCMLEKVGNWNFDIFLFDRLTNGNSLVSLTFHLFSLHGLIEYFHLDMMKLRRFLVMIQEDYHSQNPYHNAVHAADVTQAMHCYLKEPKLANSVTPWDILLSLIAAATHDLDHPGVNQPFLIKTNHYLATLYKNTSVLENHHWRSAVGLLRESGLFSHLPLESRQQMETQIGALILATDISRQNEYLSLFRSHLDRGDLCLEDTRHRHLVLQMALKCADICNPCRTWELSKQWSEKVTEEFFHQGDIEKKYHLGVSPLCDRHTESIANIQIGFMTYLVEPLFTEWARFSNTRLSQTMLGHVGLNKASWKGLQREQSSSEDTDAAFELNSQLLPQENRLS
Experimental: PDE inhibition allows growth in 5FOA medium as measured by optical density after 48 hours incubation at 30° C. Compound BC12 and six structural analogs were tested for growth stimulation.
(§1) Cells were pregrown in EMM medium [MP Biomedicals (Solon, Ohio), 3% glucose, filter-sterilized to avoid carmelization, which would introduce variability into the optical density of the medium] containing from 0 mM to 2.5 mM cAMP (or either 0.5 mM or 1.0 mM cGMP). This was to repress expression of the fbp1-ura4 reporter prior to exposure of cells to 5FOA medium. Cells were grown at 30° C. to exponential phase (approximately 10^7 cells/ml). Cells were collected by centrifugation and resuspended in 5FOA medium, and 25 μl were transferred to 384-well microtiter dishes (untreated, with flat clear bottoms) that had been pre-filled with 25 μl 5FOA medium and pre-pinned with 100 nl of compounds (stock solutions were generally 10 mM). Starting cell concentrations ranged from 0.5×10^5 to 4×10^5 cells/ml depending on the screening strain. […] Other positive control dishes contained 5 mM cAMP in the 5FOA medium for PDEs that lack appropriate control compounds. Cultures were grown for 48 hours at 30° C., sealed in an airtight container with moist paper towels to prevent evaporation. Optical densities (OD600) of cultures were measured using a microplate reader. Bioinformatic analysis of the results to determine composite Z scores was performed as previously described (1, 3).

[2] = target: T1, PDE4B3 (Mus musculus, UniProt Q8VBU5); assay: 5FOA growth assay in fission yeast strain expressing PDE4B3; assay type: cell-based, Murine; conditions: high throughput 5FOA growth screen
T1 construct: targets used in the assays are full-length proteins (as opposed to simply the catalytic domain); expressed in transfected cells; host or cells: Schizosaccharomyces pombe, PDE gene integrated in place of cgs2
T1 sequence (Q8VBU5 1-721): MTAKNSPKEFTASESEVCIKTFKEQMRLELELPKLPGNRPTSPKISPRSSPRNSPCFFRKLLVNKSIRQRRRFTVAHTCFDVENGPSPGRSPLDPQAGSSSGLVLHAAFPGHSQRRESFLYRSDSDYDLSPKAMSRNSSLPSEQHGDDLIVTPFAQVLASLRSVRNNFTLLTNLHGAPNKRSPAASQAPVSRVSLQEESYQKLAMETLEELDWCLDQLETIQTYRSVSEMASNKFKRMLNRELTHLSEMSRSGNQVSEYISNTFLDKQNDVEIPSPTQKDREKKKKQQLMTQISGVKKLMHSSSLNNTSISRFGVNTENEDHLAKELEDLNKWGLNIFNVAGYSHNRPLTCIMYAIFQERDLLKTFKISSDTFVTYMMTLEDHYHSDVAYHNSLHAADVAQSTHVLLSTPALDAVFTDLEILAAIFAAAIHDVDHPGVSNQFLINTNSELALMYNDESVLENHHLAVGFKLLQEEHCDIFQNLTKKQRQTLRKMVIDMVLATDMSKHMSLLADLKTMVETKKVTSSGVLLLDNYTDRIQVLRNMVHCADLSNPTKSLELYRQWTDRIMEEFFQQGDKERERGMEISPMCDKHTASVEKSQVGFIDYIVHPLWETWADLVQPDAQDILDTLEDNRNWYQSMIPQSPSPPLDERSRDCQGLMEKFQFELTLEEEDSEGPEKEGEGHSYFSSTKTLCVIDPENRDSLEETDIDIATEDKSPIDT
Experimental: (§2) High throughput drug screens were carried out at the Broad Institute's Chemical Biology Program screening facility (Broad Institute, Cambridge, Mass.). Depending upon the strain, cultures were pregrown to exponential phase in EMM complete medium containing from 0.5 to 2.5 mM cAMP to repress fbp1-ura4 transcription. […] Starting cell concentrations ranged from 0.5×10^5 to 4×10^5 cells/ml depending on the screening strain. […] Other positive control dishes contained 5 mM cAMP in the 5FOA medium. Cultures were grown for 48 hours at 30° C., sealed in an airtight container with moist paper towels to prevent evaporation. Optical densities (OD600) of cultures were measured using a microplate reader. Bioinformatic analysis of the results to determine composite Z scores was performed as previously described^30, 31.
(§3) To determine whether the 5FOA growth phenotype could be exploited for high throughput drug screening, strains expressing PDE2A, PDE4A, PDE4B, or PDE8A were pre-grown in EMM medium containing cAMP and then transferred to 5FOA medium in 384 well microtiter plates in the presence or absence of cAMP. OD600 measurements were taken after 48 hours incubation at 30° C.
as §1, with “Cells were collected by centrifugation and resuspended in 5FOA medium, and 25 μl were transferred to 384-well microtiter dishes (untreated, with flat clear bottoms) that had been pre-filled with 25 μl 5FOA medium and pre-pinned with 100 nl of compounds (stock solutions were generally 10 mM).” left out

[3] = target: T2, PDE4A1 (Mus musculus, UniProt O89084); assay: 5FOA growth assay (high throughput screen, ED50) in fission yeast strain expressing PDE4A1; assay type: cell-based; conditions: high throughput 5FOA growth screen; greater than 8.53 = statistically-significant inhibitor
T2 construct: targets used in the assays are full-length proteins (as opposed to simply the catalytic domain); expressed in transfected cells; host or cells: Schizosaccharomyces pombe, PDE gene integrated in place of cgs2
T2 sequence (O89084 1-610 isoform O89084-2): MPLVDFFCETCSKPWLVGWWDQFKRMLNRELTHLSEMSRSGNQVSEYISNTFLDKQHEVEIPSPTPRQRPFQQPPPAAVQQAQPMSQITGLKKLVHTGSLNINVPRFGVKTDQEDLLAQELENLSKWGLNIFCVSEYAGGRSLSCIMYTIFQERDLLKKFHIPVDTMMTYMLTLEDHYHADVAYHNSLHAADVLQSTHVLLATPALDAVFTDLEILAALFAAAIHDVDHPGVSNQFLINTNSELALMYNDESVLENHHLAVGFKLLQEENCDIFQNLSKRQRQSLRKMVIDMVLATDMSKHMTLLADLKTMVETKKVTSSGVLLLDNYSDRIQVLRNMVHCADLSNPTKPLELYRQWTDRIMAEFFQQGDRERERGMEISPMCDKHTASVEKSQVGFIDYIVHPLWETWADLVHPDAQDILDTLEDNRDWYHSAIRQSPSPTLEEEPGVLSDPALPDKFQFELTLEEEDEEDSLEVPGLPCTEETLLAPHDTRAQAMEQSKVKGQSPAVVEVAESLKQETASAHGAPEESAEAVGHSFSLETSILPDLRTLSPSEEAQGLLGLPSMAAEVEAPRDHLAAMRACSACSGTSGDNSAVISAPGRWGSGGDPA
Experimental: as §2, §3
as §1, with “Cells were collected by centrifugation and resuspended in 5FOA medium, and 25 μl were transferred to 384-well microtiter dishes (untreated, with flat clear bottoms) that had been pre-filled with 25 μl 5FOA medium and pre-pinned with 100 nl of compounds (stock solutions were generally 10 mM).” left out

c1ccc(CNc2ncnc3sc4c(c23)CCCC4)cc1 [Compound 2077J03]
Composite Z score, PDE7A [1]: 1.1908
Composite Z score, PDE4B3 [2]: 1.9013
Composite Z score, PDE4A1 [3]: 1.1575

Cc1sc2ncnc(N3CCN(CCO)CC3)c2c1C [Compound 2084A21]
Composite Z score, PDE7A [1]: 0.0079
Composite Z score, PDE4B3 [2]: 0.6718
Composite Z score, PDE4A1 [3]: 0.1942

Cc1sc2ncnc(NCC(=O)O)c2c1C [Compound 2085F18]
Composite Z score, PDE7A [1]: −1.774
Composite Z score, PDE4B3 [2]: 0.8136
Composite Z score, PDE4A1 [3]: 0.3168

Cc1sc2ncnc(N3CCN(c4cccc(C(F)(F)F)c4)CC3)c2c1C [Compound 2074G03]
Composite Z score, PDE7A [1]: −1.925
Composite Z score, PDE4B3 [2]: −1.188
Composite Z score, PDE4A1 [3]: 11.67

c1nc(NC2CCCC2)c2c3c(sc2n1)CCC3 [2084 E21]
Composite Z score, PDE7A [1]: 18.891
Composite Z score, PDE4B3 [2]: 0.593
Composite Z score, PDE4A1 [3]: 29.047

CC(C)CNc1ncnc2sc3c(c12)CCCC3 [Compound 2077P12]
Composite Z score, PDE7A [1]: 17.695
Composite Z score, PDE4B3 [2]: 9.3964
Composite Z score, PDE4A1 [3]: 1.6797

Cc1sc2ncnc(N(C)C)c2c1C [Compound 2085O15]
Composite Z score, PDE7A [1]: −0.627
Composite Z score, PDE4B3 [2]: −1.519
Composite Z score, PDE4A1 [3]: 1.0991

CCN(CC)CCCNc1ncnc2sc3c(c12)CC(C)CC3 (stereo not drawn) [Compound 2083L15]
Composite Z score, PDE7A [1]: −1.18
Composite Z score, PDE4B3 [2]: −0.877
Composite Z score, PDE4A1 [3]: 1.9931

CCNc1nc(C)nc2sc3c(c12)CCCC3 [Compound 1410G03]
Composite Z score, PDE4B3 [2]: 2.8289
Composite Z score, PDE4A1 [3]: 2.9506

O=C(O)C(Cc1ccccc1)Nc1ncnc2sc3c(c12)CCC3 (stereo not drawn) [Compound 1381O17]
Composite Z score, PDE4B3 [2]: 0.3352
Composite Z score, PDE4A1 [3]: −0.467

O=C(Nc1ncnc2sc3c(c12)CCCCC3)c1ccco1 [Compound 2084G06]
Composite Z score, PDE7A [1]: −1.808
Composite Z score, PDE4B3 [2]: 0.884
Composite Z score, PDE4A1 [3]: 6.4203

O=C(Nc1ncnc2sc3c(c12)CCCC3)C(F)(F)F [Compound 1406P09]
Composite Z score, PDE4B3 [2]: 0.5128
Composite Z score, PDE4A1 [3]: 0.1456

COC(=O)Cc1nc(N2CCC(C)CC2)c2c3c(sc2n1)CCCC3 [Compound 1392J18]
Composite Z score, PDE4B3 [2]: 0.7173
Composite Z score, PDE4A1 [3]: 10.795

CCOC(=O)c1sc2ncnc(N3CCc4ccccc4C3)c2c1C [Compound 1379L18]
Composite Z score, PDE4B3 [2]: 1.8207
Composite Z score, PDE4A1 [3]: −0.753

Cc1c(C(=O)N2CCC3(CC2)OCCO3)sc2ncnc(N(C)c3ccccc3)c12 [1393 E07]
Composite Z score, PDE4B3 [2]: −1.206
Composite Z score, PDE4A1 [3]: 3.1682

COc1ccc(C(=O)Nc2ncnc3sc4c(c23)CCCC4)cc1OC [Compound 1414F18]
Composite Z score, PDE4B3 [2]: −0.382
Composite Z score, PDE4A1 [3]: 9.1375

CCN1CCN(c2nc(C)nc3sc4c(c23)CCC4)CC1 [Compound 1414C06]
Composite Z score, PDE4B3 [2]: 0.632
Composite Z score, PDE4A1 [3]: 1.6242

CN(C)CCCNc1ncnc2sc3c(c12)CCCC3 [Compound 1414C02]
Composite Z score, PDE4B3 [2]: 21.25
Composite Z score, PDE4A1 [3]: 1.6456

CC1CCc2c(sc3nc(SCC(N)=O)nc(NCc4ccccc4)c23)C1 (stereo not drawn) [Compound 1439G17]
Composite Z score, PDE4B3 [2]: 47.874
Composite Z score, PDE4A1 [3]: 6.7542

Cc1sc2ncnc(NCc3ccc4c(c3)OCO4)c2c1C [Compound 1426A15]
Composite Z score, PDE4B3 [2]: 0.9419
Composite Z score, PDE4A1 [3]: 1.5745

Cc1nc(N2CC(C)OC(C)C2)c2c3c(sc2n1)CCC3 (stereo not drawn) [Compound 1421B05]
Composite Z score, PDE4B3 [2]: 5.4669
Composite Z score, PDE4A1 [3]: 2.1932

Cc1sc2ncnc(NCc3cccnc3)c2c1C [Compound 2081F17]
Composite Z score, PDE7A [1]: 0.439
Composite Z score, PDE4B3 [2]: 1.6993
Composite Z score, PDE4A1 [3]: 0.1374

c1ccc(CN2CCN(c3ncnc4sc5c(c34)CCCCC5)CC2)cc1 [Compound 2074A07]
Composite Z score, PDE7A [1]: 0.7527
Composite Z score, PDE4B3 [2]: 0.8366
Composite Z score, PDE4A1 [3]: −0.348

CC(C)C(Nc1ncnc2sc3c(c12)CCC3)C(=O)O (stereo not drawn) [Compound 1381A19]
Composite Z score, PDE4B3 [2]: 0.2365
Composite Z score, PDE4A1 [3]: 1.3339

O=C(Nc1ncnc2sc3c(c12)CCC3)c1cccs1 [Compound 2084I06]
Composite Z score, PDE7A [1]: 12.419
Composite Z score, PDE4B3 [2]: 0.9421
Composite Z score, PDE4A1 [3]: 7.8022

OCCN(CCO)c1ncnc2sc3c(c12)CCCC3 [1415 E01]
Composite Z score, PDE4B3 [2]: 0.8257
Composite Z score, PDE4A1 [3]: 2.2076

CC(C)(C)C(=O)Nc1ncnc2sc3c(c12)CCCC3 [Compound 1379O22]
Composite Z score, PDE4B3 [2]: −0.703
Composite Z score, PDE4A1 [3]: 1.5734

O=C(c1ccco1)N1CCN(c2ncnc3sc4c(c23)CCCC4)CC1 [Compound 2083J20]
Composite Z score, PDE7A [1]: 0.8496
Composite Z score, PDE4B3 [2]: 5.6256
Composite Z score, PDE4A1 [3]: 18.511
